# Data published in patent publication US10844044B2 (Vanderbilt University, priority 2018, dated 2020).
# Target: WDR5 (Homo sapiens (Human), UniProt P61964)
# Assay: TR-FRET binding assay (displacement of 10mer-Thr-FAM probe from WDR5)
# Conditions: read-out: Ki for Inhibition of WDR5 by TR-FRET assay; TR-FRET, 10mer-Thr-FAM probe, WDR5-His tag 2 nM, pH 7.0
row,SMILES,Ki
1,"COc1ncc(C)cc1-c1cc(Cn2ccn(C)c2=N)cc(C(=O)NC(c2cc(C)ccn2)C2CC2)c1 (stereo not shown) [Example 2, N-(Cyclopropyl(4-methylpyridin-2-yl)methyl)-3-((2-imino-3-methyl-2,3-dihydro-1-imidazol-1-yl)methyl)-5-(2-methoxy-5-methylpyridin-3-yl)benzamide]",< 0.1 nM
2,"COc1ccnc(CNC(=O)c2cc(Cn3ccn(C)c3=N)cc(-c3cc(C)cnc3OC)c2)c1 [Example 4, 3-((2-imino-3-methyl-2,3-dihydro-1H-imidazol-1-yl)methyl)-5-(2-methoxy-5-methylpyridin-3-yl)-N-((4-methoxypyridin-2-yl)methyl)benzamide]",0.34 nM
3,"Cc1cc(F)ccc1-c1cc(Cn2cc[nH]c2=N)cc(C(=O)NCc2ccc(Cl)c(Cl)c2)n1 [Example 6, N-(3,4-Dichlorobenzyl)-6-(4-fluoro-2-methylphenyl)-4-((2-imino-2,3-dihydro-1H-imidazol-1-yl)methyl)picolinamide]",24 nM
4,Cc1ccnc(C(NC(=O)c2cc(Cn3ccn(C)c3=N)cc(-c3ccnc(C)c3)c2)C2CC2)c1 (stereo not shown) [Example 7],0.8 nM
5,"Cc1ccnc(C(NC(=O)c2cc(Cn3ccn(C)c3=N)cc(-c3cccn3C)c2)C2CC2)c1 (stereo not shown) [Example 11, N-(Cyclopropyl(4-methylpyridin-2-yl)methyl)-3-((2-imino-3-methyl-2,3-dihydro-1H-imidazol-1-yl)methyl)-5-(1-methyl-1H-pyrrol-2-yl)benzamide]",0.83 nM
6,"Cc1ccnc(C(NC(=O)c2cc(Cn3ccn(C)c3=N)cc(-c3ccnn3C)c2)C2CC2)c1 (stereo not shown) [Example 12, N-(Cyclopropyl(4-methylpyridin-2-yl)methyl)-3-((2-imino-3-methyl-2,3-dihydro-1H-imidazol-1-yl)methyl)-5-(1-methyl-1H-pyrazol-5-yl)benzamide]",1.2 nM
7,COc1cc(-c2cc(Cn3ccn(C)c3=N)cc(C(=O)NC(c3cc(C)ccn3)C3CC3)c2)ccn1 (stereo not shown) [Example 14],6 nM
8,"Cc1ccnc(C(NC(=O)c2cc(Cn3ccn(C)c3=N)cc(-c3cnccc3C)c2)C2CC2)c1 (stereo not shown) [Example 15, N-(Cyclopropyl(4-methylpyridin-2-yl)methyl)-3-((2-imino-3-methyl-2,3-dihydro-1H-imidazol-1-yl)methyl)-5-(4-methylpyridin-3-yl)benzamide]",2.7 nM
9,"Cc1cc(CNC(=O)c2cc(Cn3ccn(C)c3=N)cc(-c3ccncc3C)c2)ccc1Cl [Example 16, N-(4-Chloro-3-methylbenzyl)-3-((2-imino-3-methyl-2,3-dihydro-1H-imidazol-1-yl)methyl)-5-(3-methylpyridin-4-yl)benzamide]",0.49 nM
10,"Cc1cc(CNC(=O)c2cc(Cn3ccn(C)c3=N)cc(-c3ccnn3C)c2)ccc1Cl [Example 17, N-(4-Chloro-3-methylbenzyl)-3-((2-imino-3-methyl-2,3-dihydro 1H-imidazol-1-yl)methyl)-5-(1-methyl-1H-pyrazol-5-yl)benzamide]",0.94 nM
11,"Cc1cc(-c2cc(Cn3ccn(C)c3=N)cc(C(=O)NCc3ccc(Cl)c(C)c3)c2)ccn1 [Example 18, N-(4-Chloro-3-methylbenzyl)-3-((2-imino-3-methyl-2,3-dihydro-1H-imidazol-1-yl)methyl)-5-(2-methylpyridin-4-yl)benzamide]",3.5 nM
12,"Cc1cc(CNC(=O)c2cc(Cn3cc[nH]c3=N)cc(-c3cccn3C)c2)ccc1Cl [Example 19, N-(4-Chloro-3-methylbenzyl)-3-((2-imino-2,3-dihydro-1H-imidazol-1-yl)methyl)-5-(1-methyl-1H-pyrrol-2-yl)benzamide]",0.35 nM
13,"COc1cnccc1-c1cc(Cn2ccn(C)c2=N)cc(C(=O)NCc2ccc(Cl)c(C)c2)c1 [Example 20, N-(4-Chloro-3-methylbenzyl)-3-((2-imino-3-methyl-2,3-dihydro-1H-imidazol-1-yl)methyl)-5-(3-methoxypyridin-4-yl)benzamide]",2.5 nM
